{"source": "paper PMC5656594", "about": "(Scientific Reports, 2017)", "key": {"[1]": {"target": "T1, IN alone (IN^PFV) (Human spumaretrovirus, UniProt P14350)", "T1 construct": "The full-length wt IN^PFV, the three single mutants of the catalytic triad; His; made in house; host or cells: E. coli BL21-CodonPlus (DE3)-RIPL", "assay": "DTG fluorescence enhancement in the presence of IN alone", "type": "binding, prototype foamy virus (PFV)", "conditions": "1 mM Mg2+", "description": "The three other conditions (i→iii) led to superimposable spectra. To note, the presence of IN/DNA complexes accounts for light scattering on the blue side of the spectrum.\nAll experiments were performed in the presence of 1 mM Mg^2+ (see Supplementary Fig. S4 for [Mg^2+] = 10 mM). λex = 345 nm and PMT = 980 V (Δλex = Δλem = 5 nm). […] Contributions of Raman and Rayleigh scattering were eliminated in the inset spectrum: (viii) = (iv)–(vii) where (vii) represents the proper spectrum of Mg^2+-DTG in the context of the binary IN-DNA complex. […] [Mg^2+] = 1 mM. Inset: fluorescence intensity (375–385 nm) as a function of (IN + DNA). The arrows indicate the intensity level after addition of 500 mM NaCl. Emission spectra are representative of 3 independent experiments for each condition of (IN + DNA). […] (E) Measurement of the binary IN-DNA complex formation. The formation of binary complexes was performed by monitoring the fluorescence anisotropy (r) of DNA (Fl-PFV^CAAT) under similar experimental conditions of the DTG-binding assay (panels C-D). Top, varying stoichiometric concentrations of IN and DNA were mixed and the r parameter was monitored. […]\nFluorescence excitation and emission spectra of INSTIs were recorded on a Eclipse (Varian) spectrofluorimeter equipped with two polarizers for anisotropy measurements and a thermostated cell holder, using 80 µl solutions placed in micro cells (Hellma). […]"}, "[2]": {"target": "T2, IN^PFV-DNA complexes (DNA#1, DNA#6, DNA#7) (Human spumaretrovirus, UniProt P14350)", "T2 construct": "The full-length wt IN^PFV, the three single mutants of the catalytic triad; His; made in house; host or cells: E. coli BL21-CodonPlus (DE3)-RIPL", "assay": "Inhibition of ST activity by DTG using DNA#1, DNA#6 or DNA#7 substrates", "type": "biochemical, prototype foamy virus (PFV)", "conditions": "100 nM DTG, 300 nM IN", "text": "The results in Table 1 cannot discriminate between a direct sequence effect on DTG-binding from an indirect effect via a possible defect in the IN-DNA interaction. The binding of IN to various DNA sequences (DNA#1 #8 #9 and #13) was similar, as measured by fluorescence anisotropy using fluorescein-labeled DNAs (Supplementary Fig. S5A). […] The X-ray structure of the IN^PFV-DNA complex highlights specific contacts (about 9) between amino acids and the bases of the two strands (i.e. reactive and non-transferred DNA strands), up to the 10th position from the reactive strand 3′-end[26]. In particular, there is a specific contact involving a guanine of the non-transferred strand at pos. 10 and the N69 residue. […] To note, based on X-ray structures of ternary RAL/or DTG-IN-DNA complexes[26],[29] in which the INSTI has direct contacts with several bases at pos.\nFigure S5. Comparison of the binary INPFV-DNA complex formation using various DNA sequences. (A) The binding of INPFV to various DNA sequences was studied by steady-state […]\nconcentrations of IN and DNA were mixed in the presence of 1mM Mg2+ and the r parameter was monitored. A constant concentration of Fl-DNA (0.3 µM) was maintained throughout the titration. The percentage of binary complexes as a function of (IN+DNA) was calculated using: %=(r–r0)/(rmax–r0) x100 where r0 and rmax correspond to anisotropy values of free DNA and IN-bound DNA, respectively.\n(B) ST activity of IN (200 or\n300 nM) after 4h incubation at 37°C using radiolabeled DNA#1, #6 or #7. Results are expressed as percentage of the activity corresponding to: DNA#1 + 300 nM IN. (C) Inhibition of the ST activity by […]\nIN concentration was 300 nM. For each substrate,\nThe bar graphs in panels B-\n(also on this page, place not known: PFV-DNA steady -state IN Strand transfer activity (% of ST with and 300 nM IN) strand transfer (% of untreated) Binary IN-DNA complexes (%) DNA#1)"}, "[3]": {"system": "IN", "conditions": "INSTIs; cited from earlier work"}, "[4]": {"target": "T3, PFV IN complexed with various DNA sequences (Human spumaretrovirus, UniProt P14350)", "T3 construct": "The full-length wt IN^PFV, the three single mutants of the catalytic triad; His; made in house; host or cells: E. coli BL21-CodonPlus (DE3)-RIPL", "assay": "DTG binding to IN complexed with various DNA sequences, fluorescence anisotropy procedure", "parameters": "species or system prototype foamy virus (PFV)", "conditions": "normalized by DNA#1, [IN]=[DNA]=1.8 μM, [DTG]=0.6 μM, 10 mM Mg2+", "description": "The binary complex concentration was measured as explained in Fig. 2E. […] This percentage was then plotted against the concentration of the binary complex (F). […] All graphs show representative data of three (panels A and B) or two (panels C–F) independent experiments.\nFluorescence excitation and emission spectra of INSTIs were recorded on a Eclipse (Varian) spectrofluorimeter equipped with two polarizers for anisotropy measurements and a thermostated cell holder, using 80 µl solutions placed in micro cells (Hellma). Drug, IN and DNA concentrations, excitation/emission slit settings as well as the photomultiplier tube (PMT) voltage are specified in figure legends. The intensity value was corrected from the inner filter effect. The steady-state fluorescence anisotropy was calculated using: r = (IVV–G x IVH)/(IVV + 2GxIVH) where IVV and IVH correspond to vertical and horizontal components, respectively, when the sample is excited with vertically polarized light. G represents the correction factor for the difference in the monochromator transmission between // and ⊥ polarized components: G = IHV/IHH. All experiments were performed at 25 °C in buffer A: 20 mM Tris pH 7.2, 50 mM NaCl, 1 mM DTT and 10% (v/v) DMSO."}}, "data": [{"smiles": "C[C@@H]1CCO[C@H]2Cn3cc(C(=O)NCc4ccc(F)cc4F)c(=O)c(O)c3C(=O)N12", "note": "[DTG, dolutegravir]", "values": [{"measurement": "DTG binding to IN alone", "setting": "[1]", "value": "no DTG binding"}, {"measurement": "ST inhibition by DTG", "setting": "[2]; IN-DNA#1 complexes", "value": "remained DTG-sensitive"}, {"measurement": "ST inhibition by DTG", "setting": "[2]; IN-DNA#6 complexes", "value": "remained DTG-sensitive"}, {"measurement": "ST inhibition by DTG", "setting": "[2]; IN-DNA#7 complexes", "value": "absence of ST inhibition"}, {"measurement": "IC50 values", "setting": "[3]", "value": "low-nanomolar range"}, {"measurement": "DTG-binding (%) Fluorescence anisotropy procedure", "setting": "[4]; DNA#1 (cognate)", "value": 100, "unit": "%"}, {"measurement": "DTG-binding (%) Fluorescence anisotropy procedure", "setting": "[4]; DNA#3", "value": "96 ± 3", "unit": "%"}, {"measurement": "DTG-binding (%) Fluorescence anisotropy procedure", "setting": "[4]; DNA#7", "value": "42 ± 6", "unit": "%"}, {"measurement": "DTG-binding (%) Fluorescence anisotropy procedure", "setting": "[4]; DNA#8", "value": "8 ± 2", "unit": "%"}, {"measurement": "DTG-binding (%) Fluorescence anisotropy procedure", "setting": "[4]; DNA#9 (random sequence)", "value": "15 ± 3", "unit": "%"}, {"measurement": "DTG-binding (%) Fluorescence anisotropy procedure", "setting": "[4]; DNA#11", "value": "29 ± 3", "unit": "%"}, {"measurement": "DTG-binding (%) Fluorescence anisotropy procedure", "setting": "[4]; DNA#12", "value": "77 ± 4", "unit": "%"}, {"measurement": "DTG-binding (%) Fluorescence anisotropy procedure", "setting": "[4]; DNA#13 (processed DNA product)", "value": "79 ± 5", "unit": "%"}]}]}
